# Reference: EP0014223A1, “Quaternary aminoacetic anilides, herbicidal compositions containing them and method for influencing plant growth” (CIBA-GEIGY AG, priority 1979, dated 1980)
# Read-outs that look alike come from different tables or passages of the source.
# How the values were obtained:
# [1] = system: Chrysanthemum variety "Wedgewood"; test: Biological tests on chrysanthemums, height reduction and delay in flowering; assay type: in vivo; conditions: foliar spray
# Protocol: (§1) In these tests chrysanthemum varieties were used which, on account of their strong growth, can only be reared as pot plants in combination with growth inhibitors.
# (§2) About 25 days after potting (14 days after pinching) the plants were sprayed with aqueous preparations of the active substance of the Example and with Alar (known inhibitior for comparison). The growth in height of the plants was measured after three different periods (see table) and the growth inhibition is expressed in percent of the height measured on untreated plants (check = 0% reduction).
# (§3) The delay in flowering was evaluated as follows: • ^* = 3-4 days delay DAA = Days after application • ^** = 4-7 days delay
# [2] = system: Chrysanthemum variety "Aglow"; test: as above; assay type: in vivo; conditions: foliar spray
# Protocol: as §1, §2, §3
# [3] = system: Chrysanthemum variety "Golden Anne"; test: as above; assay type: in vivo; conditions: foliar spray
# Protocol: as §1, §2, §3
# [4] = system: Chrysanthemum variety "Regal Anne"; test: as above; assay type: in vivo
# Protocol: as §1, §2, §3
# [5] = system: Soya plants of the variety "Hark"; test: Inhibition of the vegetative growth and yield increase of soya plants; assay type: in vivo; conditions: for Inhibition rating: 5-trifoliate leaf stage, 4 weeks after application, linear rating 1-9; for % increase of pods A (number of pods) / % increase of pods B (weight of pods): versus untreated control plants
# Protocol: Soya plants of the variety "Hark" were reared in earthenware pots and sprayed at the 5-trifoliate leaf stage with aqueous preparations of the active substance of the Example. The active substance concentrations in the spray broth were 500, 100 and 50 ppm respectively. The plant growth was evaluated 4 weeks after application in accordance with the following linear rating: • 1 = strong inhibition (no growth from the time of application) • 9 = no inhibition (growth as untreated controls)
# The yield increase was evaluated at the sime time in percent increase of the pods when compared with the yield of pods obtained with untreated control plants.
# Value A expresses the % increase in number of pods Value B express the % increase in weight of pods.
# [6] = Solubility of the product; assay type: physicochemical
# Protocol: (§4) 14,3 g (0,06 mole) of pyrrolidinoacetic acid 3-chloro-anilide are dissolved in 50 ml of ethyl acetate and then 9,4 g (0,078 mole) of allyl bromide are added. The reaction mixture is refluxed for 3 hours and the quaternised end product initially separates out as an oil which chrystallises after a brief time.After filtration with suction, washing with ethyl acetate and drying in vacuo at 50°C, 21,5 g (99,5% of theory) of the quaternary allyl pyrrolidino bromide of the formula [drawing 3] are obtained. Meting point: 144-147°C. The product is colourless, soluble in water (3,7%) and methanol (30%) and stable against hydrolysis in all pH-ranges from 3 to 10.
# [7] = system: Chrysanthemum variety "Regal Anne"; test: Biological tests on chrysanthemums, height reduction and delay in flowering; assay type: in vivo; conditions: Soil drench, 250 ppm
# chrysanthemum varieties = test: Biological tests on chrysanthemums, summary over all varieties; assay type: in vivo; conditions: depending on the variety; in sufficient water to wet all the foliage
# Protocol: as §1, §2
# Depending on the variety the optimal growth inhibition (20 to 35%) was obtained with rates between 125-250 ppm of the active ingredient of the Example in sufficient water to wet all the foliage. With one variety a soil drench application was also performed.
# [8] = Stability against hydrolysis; assay type: physicochemical; conditions: all pH-ranges from 3 to 10
# Protocol: as §4
# chrysanthemums = test: Trials under practical conditions on chrysanthemums; assay type: in vivo; conditions: independent of environmental conditions
# Source text: This inhibition is independent of environmental conditions (e.g. it is not light-dependent). Depending on the applied rate, any desired degree of growth inhibition can be obtained.
smiles,measurement,setting,value
"CN(C)NC(=O)CCC(=O)O [A, succinic acid mono-N-dimethylhydrazide, reference compound]",delay in flowering,[1]; 3400 ppm,* (^* = 3-4 days delay)
same,height reduction against check,"[1]; 3400 ppm, 14 DAA",30%
same,height reduction against check,"[1]; 3400 ppm, 32 DAA",30%
same,height reduction against check,"[1]; 3400 ppm, 39 DAA",25%
same,delay in flowering,[2]; 3400 ppm,* (^* = 3-4 days delay)
same,height reduction against check,"[2]; 3400 ppm, 14 DAA",20%
same,height reduction against check,"[2]; 3400 ppm, 32 DAA",30%
same,height reduction against check,"[2]; 3400 ppm, 39 DAA",25%
same,delay in flowering,[3]; 3400 ppm,* (^* = 3-4 days delay)
same,height reduction against check,"[3]; 3400 ppm, 14 DAA",30%
same,height reduction against check,"[3]; 3400 ppm, 32 DAA",30%
same,height reduction against check,"[3]; 3400 ppm, 39 DAA",25%
same,delay in flowering,"[4]; foliar spray, 3400 ppm",* (^* = 3-4 days delay)
same,height reduction against check,"[4]; foliar spray, 3400 ppm, 11 DAA",40%
same,height reduction against check,"[4]; foliar spray, 3400 ppm, 30 DAA",40%
same,height reduction against check,"[4]; foliar spray, 3400 ppm, 55 DAA",25%
C=CC[N+]1(CC(=O)Nc2cccc(Cl)c2)CCCC1 [B],Inhibition rating,[5]; 50 ppm spray,6
same,% increase of pods A (number of pods),[5]; 50ppm,45%
same,% increase of pods B (weight of pods),[5]; 50ppm,43%
same,Inhibition rating,[5]; 100 ppm spray,7
same,% increase of pods A (number of pods),[5]; 100 ppm,22%
same,% increase of pods B (weight of pods),[5]; 100 ppm,11%
same,Inhibition rating,[5]; 500 ppm spray,6
same,% increase of pods A (number of pods),[5]; 500 ppm,2%
same,% increase of pods B (weight of pods),[5]; 500 ppm,0%
same,solubility,"[6]; methanol, organic solvent or mixture, read-out: soluble in methanol",300 mg/mL
same,solubility,"[6]; water, read-out: soluble in water",37 mg/mL
same,delay in flowering,[7],** (^** = 4-7 days delay)
same,height reduction against check,[7]; 11 DAA,25%
same,rates giving the optimal growth inhibition (20 to 35%),chrysanthemum varieties,125-250 ppm
same,stable against hydrolysis,[8],stable
same,delay in flowering,[1]; 125 ppm,* (^* = 3-4 days delay)
same,height reduction against check,"[1]; 125 ppm, 14 DAA",10%
same,height reduction against check,"[1]; 125 ppm, 32 DAA",10%
same,height reduction against check,"[1]; 125 ppm, 39 DAA",20%
same,delay in flowering,[1]; 250 ppm,* (^* = 3-4 days delay)
same,height reduction against check,"[1]; 250 ppm, 14 DAA",15%
same,height reduction against check,"[1]; 250 ppm, 32 DAA",15%
same,height reduction against check,"[1]; 250 ppm, 39 DAA",25%
same,delay in flowering,[1]; 500 ppm,* (^* = 3-4 days delay)
same,height reduction against check,"[1]; 500 ppm, 14 DAA",15%
same,height reduction against check,"[1]; 500 ppm, 32 DAA",25%
same,height reduction against check,"[1]; 500 ppm, 39 DAA",25%
same,delay in flowering,[2]; 125 ppm,* (^* = 3-4 days delay)
same,height reduction against check,"[2]; 125 ppm, 14 DAA",0%
same,height reduction against check,"[2]; 125 ppm, 32 DAA",0%
same,height reduction against check,"[2]; 125 ppm, 39 DAA",10%
same,delay in flowering,[2]; 250 ppm,* (^* = 3-4 days delay)
same,height reduction against check,"[2]; 250 ppm, 14 DAA",10%
same,height reduction against check,"[2]; 250 ppm, 32 DAA",10%
same,height reduction against check,"[2]; 250 ppm, 39 DAA",25%
same,height reduction against check,"[2]; 500 ppm, 14 DAA",15%
same,height reduction against check,"[2]; 500 ppm, 32 DAA",25%
same,height reduction against check,"[2]; 500 ppm, 39 DAA",30%
same,delay in flowering,[3]; 125 ppm,* (^* = 3-4 days delay)
same,height reduction against check,"[3]; 125 ppm, 14 DAA",10%
same,height reduction against check,"[3]; 125 ppm, 32 DAA",30%
same,height reduction against check,"[3]; 125 ppm, 39 DAA",20%
same,delay in flowering,[3]; 250 ppm,** (^** = 4-7 days delay)
same,height reduction against check,"[3]; 250 ppm, 14 DAA",20%
same,height reduction against check,"[3]; 250 ppm, 32 DAA",35%
same,height reduction against check,"[3]; 250 ppm, 39 DAA",30%
same,delay in flowering,[3]; 500 ppm,** (^** = 4-7 days delay)
same,height reduction against check,"[3]; 500 ppm, 14 DAA",30%
same,height reduction against check,"[3]; 500 ppm, 32 DAA",40%
same,height reduction against check,"[3]; 500 ppm, 39 DAA",35%
same,height reduction against check,"[4]; Soil drench, 250 ppm, 30 DAA",50%
same,height reduction against check,"[4]; Soil drench, 250 ppm, 55 DAA",50%
same,delay in flowering,"[4]; foliar spray, 125 ppm",* (^* = 3-4 days delay)
same,height reduction against check,"[4]; foliar spray, 125 ppm, 11 DAA",10%
same,height reduction against check,"[4]; foliar spray, 125 ppm, 30 DAA",25%
same,height reduction against check,"[4]; foliar spray, 125 ppm, 55 DAA",25%
same,delay in flowering,"[4]; foliar spray, 250 ppm",* (^* = 3-4 days delay)
same,height reduction against check,"[4]; foliar spray, 250 ppm, 11 DAA",25%
same,height reduction against check,"[4]; foliar spray, 250 ppm, 30 DAA",50%
same,height reduction against check,"[4]; foliar spray, 250 ppm, 55 DAA",25%
same,delay in flowering,"[4]; foliar spray, 500 ppm",* (^* = 3-4 days delay)
same,height reduction against check,"[4]; foliar spray, 500 ppm, 11 DAA",25%
same,height reduction against check,"[4]; foliar spray, 500 ppm, 30 DAA",60%
same,height reduction against check,"[4]; foliar spray, 500 ppm, 55 DAA",40%
same,delay in flowering,"[4]; foliar spray, 1000 ppm",* (^* = 3-4 days delay)
same,height reduction against check,"[4]; foliar spray, 1000 ppm, 11 DAA",25%
same,height reduction against check,"[4]; foliar spray, 1000 ppm, 30 DAA",60%
same,height reduction against check,"[4]; foliar spray, 1000 ppm, 55 DAA",40%
same,delay in flowering,"[4]; foliar spray, 2000 ppm",** (^** = 4-7 days delay)
same,height reduction against check,"[4]; foliar spray, 2000 ppm, 11 DAA",40%
same,height reduction against check,"[4]; foliar spray, 2000 ppm, 30 DAA",75%
same,height reduction against check,"[4]; foliar spray, 2000 ppm, 55 DAA",50%
same,inhibition of internode growth,chrysanthemums,uniform and reproducible inhibition of internode growth
